Results: US9011853B2, “B7-H4 fusion proteins and methods of use thereof” (Amplimmune, Inc., priority 2009, dated 2015)
“And” between values parts separate entries of the source, which are not always exact repeats. Equal values may be shown once.

Tested on: serum levels of 58 analytes
Assay: Serum biomarker analysis, quantitative immunoassay multi-analyte profiling (Rules-Based Medicine RodentMAP v2.9), AA#80
Type: in vivo, mouse
Method: In AA#80, serum samples were collected on Day 27, Day 34, Day 41 and Day 55 via the submandibular vein. Approximately 200 μL of blood per mouse was collected in Microtainer® serum separator tubes. Serum was removed following centrifugation and stored at <−65° C. until analysis.
Selected serum samples were sent to Rules-Based Medicine (Austin, Tex.) for quantitative immunoassay multi-analyte profiling of serum samples, with the goal of identifying biomarkers that could be used to monitor disease progression and response to B7-H4-Ig treatment. Day 27, Day 34, and Day 41 sera from the three representative mice in the B7-H4-Ig group (tag #3332, 3334, and 3338) and three representative mice in the Synagis® group (tag #3324, 3329, and 3330) were analyzed for levels of 58 analytes using the RodentMAP v2.9 Testing Service.
Data from the Rules-Based Medicine analysis was analyzed using Microsoft Excel and GraphPad Prism software. T-tests were performed to compare the levels of each analyte in the B7-H4-Ig versus Synagis® treated samples. No correction was made for multiple comparisons. Additionally, correlation coefficients were calculated for each analyte versus disease score.

In the case of “Synagis®: humanized monoclonal IgG antibody against the F protein of Respiratory Syncytial Virus; used as a human IgG1 isotype control [reference compound]”, the “serum samples with undetectable GST-α levels” value (all samples (Day 27, 34, 41)) was 7/9, the “serum samples with TNF-α levels above the limit of detection” value (all samples (Day 27, 34, 41) (FIG. 16)) was 5/9 and the “M-CSF (Macrophage-Colony Stimulating Factor)” value (serum, Day 34, LDD 0.01795, listed as Human LgG1 Control) was 6.46 ng/mL and 6.3 ng/mL and 6.09 ng/mL. For the same substance, the “MIP-1gamma (Macrophage Inflammatory Protein-1gamma)” value (serum, Day 34, LDD 0.0736, listed as Human LgG1 Control) was 42.2 ng/mL and 41 ng/mL and 40.9 ng/mL, the “TEMP-1 (Tissue Inhibitor of Metalicproteinase Type-1)” value (serum, Day 34, LDD 0.18, listed as Human LgG1 Control) was 1.7 ng/mL and 1.88 ng/mL and 1.31 ng/mL and the “IL-5 (Interleukin-5)” value (serum, Day 34, LDD 0.194, listed as Human LgG1 Control) was 0.333 ng/mL and 0.474 ng/mL. For the same substance, the “MIP-1alpha (Macrophage Inflammatory Protein-1alpha)” value (serum, Day 34, LDD 0.2255, listed as Human LgG1 Control) was 3.13 ng/mL and 2.88 ng/mL and 2.93 ng/mL, the “MIP-3beta (Macrophage Inflammatory Protein-3beta)” value (serum, Day 34, LDD 0.465, listed as Human LgG1 Control) was 2.63 ng/mL and 2.52 ng/mL and 2.67 ng/mL and the “Tissue Factor” value (serum, Day 34, LDD 0.5175, listed as Human LgG1 Control) was 10.8 ng/mL and 10 ng/mL and 12.5 ng/mL. For the same substance, the “MPO (Myeloperoxidase)” value (serum, Day 34, LDD 0.95, listed as Human LgG1 Control) was 253 ng/mL and 254 ng/mL, the “SGOT (Serum Glutamic-Oxaloacetic Transaminase)” value (serum, Day 34, LDD 1.86, listed as Human LgG1 Control) was 75 µg/mL and 140 µg/mL and 81.9 µg/mL and the “TPO (Thromboproletin)” value (serum, Day 34, LDD 2.66, listed as Human LgG1 Control) was 36.1 ng/mL and 34.2 ng/mL and 39.8 ng/mL. For the same substance, the “SAP (Setrum Amtyloid P)” value (serum, Day 34, LDD 5.4, listed as Human LgG1 Control) was 38.4 µg/mL and 48.6 µg/mL and 38.3 µg/mL, the “MIP-2 (Macrophage Inflammatory Protein-2)” value (serum, Day 34, LDD 7.174, listed as Human LgG1 Control) was 27.2 pg/mL and 32.3 pg/mL and 33.6 pg/mL and the “MMP-9 (Matrix Metalloproteinase-9)” value (serum, Day 34, LDD 10, listed as Human LgG1 Control) was 207 ng/mL and 259 ng/mL and 283 ng/mL. For the same substance, the “MCP-1 (Monocyte Chemoattractant Protein-1)” value (serum, Day 34, LDD 16.924, listed as Human LgG1 Control) was 99.8 pg/mL and 78.3 pg/mL and 117 pg/mL, the “VCAM-1 (Vescular Cell Adhesion Molecule-1)” value (serum, Day 34, LDD 19, listed as Human LgG1 Control) was 2290 ng/mL and 2120 ng/mL and 2450 ng/mL and the “MDC (Macrophage-Derived Chemokine)” value (serum, Day 34, LDD 21.85, listed as Human LgG1 Control) was 1270 pg/mL and 1320 pg/mL and 1130 pg/mL. The Myoglobin (serum, Day 34, LDD 24, listed as Human LgG1 Control) was 10 ng/mL and 9.69 ng/mL and 12.7 ng/mL, the “MCP-3 (Monocyte Chemoattractant Protein-3)” value (serum, Day 34, LDD 31.36, listed as Human LgG1 Control) was 188 pg/mL and 180 pg/mL and 193 pg/mL and the “VEGF (Vescular Endotheial Cell Growth Factor)” value (serum, Day 34, LDD 38.2, listed as Human LgG1 Control) was 92.6 pg/mL and 128 pg/mL and 114 pg/mL. The “IP-10 (Inducible Protein-10)” value (serum, Day 34, LDD 40.28, listed as Human LgG1 Control) was 68.1 pg/mL and 52 pg/mL and 84.3 pg/mL, the “LIF (Leukemia Infabitory Factor)” value (serum, Day 34, LDD 43.6, listed as Human LgG1 Control) was 1620 pg/mL and 1430 pg/mL and the “MCP-5 (Monocyte Chemoattractant Protein-5)” value (serum, Day 34, LDD 46.38, listed as Human LgG1 Control) was 37.5 pg/mL and 46.2 pg/mL and 41 pg/mL. The “SCF (Stem Cell Factor)” value (serum, Day 34, LDD 75.17, listed as Human LgG1 Control) was 214 pg/mL and 182 pg/mL, the Lymphotactin (serum, Day 34, LDD 85.48, listed as Human LgG1 Control) was 219 pg/mL and 151 pg/mL and 205 pg/mL and the “VWF (Von Willebrand Factor)” value (serum, Day 34, LDD 98.6, listed as Human LgG1 Control) was 107 ng/mL and 92.4 ng/mL and 139 ng/mL. For the same substance, the “M-CSF (Macrophage-Colony Stimulating Factor)” value (serum, Day 41, LDD 0.01795, listed as Human LgG1 Control) was 6.38 ng/mL and 5.22 ng/mL and 6.37 ng/mL, the “MIP-1gamma (Macrophage Inflammatory Protein-1gamma)” value (serum, Day 41, LDD 0.0736, listed as Human LgG1 Control) was 45.4 ng/mL and 44.8 ng/mL and the “TEMP-1 (Tissue Inhibitor of Metalicproteinase Type-1)” value (serum, Day 41, LDD 0.18, listed as Human LgG1 Control) was 3.54 ng/mL and 3.21 ng/mL and 4.33 ng/mL. The “IL-5 (Interleukin-5)” value (serum, Day 41, LDD 0.194, listed as Human LgG1 Control) was 0.616 ng/mL and 0.368 ng/mL and 0.333 ng/mL, the “MIP-1alpha (Macrophage Inflammatory Protein-1alpha)” value (serum, Day 41, LDD 0.2255, listed as Human LgG1 Control) was 3.03 ng/mL and 3.13 ng/mL and 3.32 ng/mL and the “MIP-3beta (Macrophage Inflammatory Protein-3beta)” value (serum, Day 41, LDD 0.465, listed as Human LgG1 Control) was 3.27 ng/mL and 2.73 ng/mL and 2.35 ng/mL. For the same substance, the “Tissue Factor” value (serum, Day 41, LDD 0.5175, listed as Human LgG1 Control) was 10.8 ng/mL and 9.17 ng/mL and 11.7 ng/mL, the “MPO (Myeloperoxidase)” value (serum, Day 41, LDD 0.95, listed as Human LgG1 Control) was 259 ng/mL and 263 ng/mL and 240 ng/mL and the “SGOT (Serum Glutamic-Oxaloacetic Transaminase)” value (serum, Day 41, LDD 1.86, listed as Human LgG1 Control) was 84 µg/mL and 93.9 µg/mL and 78.4 µg/mL. The “TPO (Thromboproletin)” value (serum, Day 41, LDD 2.66, listed as Human LgG1 Control) was 38 ng/mL and 39.8 ng/mL and 32.4 ng/mL, the “SAP (Setrum Amtyloid P)” value (serum, Day 41, LDD 5.4, listed as Human LgG1 Control) was 49.2 µg/mL and 46.2 µg/mL and 48.8 µg/mL and the “MIP-2 (Macrophage Inflammatory Protein-2)” value (serum, Day 41, LDD 7.174, listed as Human LgG1 Control) was 33.6 pg/mL and 50.3 pg/mL. For the same substance, the “IL-6 (Interleukin-6)” value (serum, Day 41, LDD 13.852, listed as Human LgG1 Control) was 74.2 pg/mL and 67.5 pg/mL and 93.7 pg/mL, the “MCP-1 (Monocyte Chemoattractant Protein-1)” value (serum, Day 41, LDD 16.924, listed as Human LgG1 Control) was 90.2 pg/mL and 129 pg/mL and 105 pg/mL and the “VCAM-1 (Vescular Cell Adhesion Molecule-1)” value (serum, Day 41, LDD 19, listed as Human LgG1 Control) was 2130 ng/mL and 1890 ng/mL and 1900 ng/mL.
